Where two headings read alike, the source gives them in different places.
Assays:
[1] = test system: winter wheat, soy, and strawberry protoplasts; test: Protoplast viability by light microscope, other species; format: cell-based; details: day 8, 0, 50 or 100 millimolar calcium
Method: Separate suspensions of maize B73, winter wheat, soy, and strawberry protoplasts (2×10^5 cells per milliliter) were prepared in YPIM B-liquid medium containing calcium chloride at 0, 50, or 100 millimolar. One-half milliliter aliquots of the suspensions were dispensed into a 24-well microtiter plate.
Viability at day 8 of culture was judged by visualization under a light microscope.

Structure (SMILES): [Ca+2].[Cl-].[Cl-] [calcium chloride]
- viability [1]: no large differences
- plant protoplast viability (plant protoplasts; about 40 millimolar or about 50 millimolar): Even higher levels of plant protoplast viability
- protoplast viability (plant protoplasts; between or about 50 to about 100 millimolar, several titration experiments): greatest improvement in protoplast viability
- plant protoplast viability (plant protoplasts; culture medium contains about 30 millimolar): Beneficial effects
